Measured values: PMC11784145, “Efficacy and in vitro pharmacological assessment of novel N-hydroxypyridinediones as hepatitis B virus ribonuclease H inhibitors” (Antimicrobial Agents and Chemotherapy, 2024)

Legend:
[1] = tested on: HBV replication (HBV plus-polarity DNA strand); assay: HBV replication inhibition, strand preferential qPCR in hepDES19 cells; assay type: cell-based, hepatitis B virus; conditions: for EC50: 72 h exposure, HBV plus-polarity strand suppression, highest concentration tested 100 µM, mean ± SD, read-out: HepDES19 EC50
Method: HBV replication inhibition was measured in hepDES19 cells following 72 h compound exposure without compound replenishment. EC50 values were determined by HBV plus-polarity strand suppression using a strand preferential qPCR assay, as described previously ([28]). Three or more replicate values were obtained on different days.

[2] = Solubility limit, turbidimetric assay; assay type: physicochemical; conditions: for Average Sol (solubility limit) / Sol 1 (solubility limit) / Sol 2 (solubility limit) / Sol 3 (solubility limit) / Sol 4 (solubility limit): upper limit 200 µM
Method: Solubility limits were determined by a turbidimetric assay, as described ([27]), with the solubility limit being defined as the compound concentration where light scattering began to rise. Two or more replicate assays were performed for each compound at each pH on different days.

[3] = Parallel artificial membrane permeability assay (PAMPA); assay type: in vitro ADME
Method: Compound Papp values were determined by normalizing the experimental compound absorbance to the compounds’ absorbances at equilibrium, membrane porosity, buffer volume, and time (s). Two or more replicate assays were obtained on separate days for each pH.

HepDES19 cells = conditions: read-out: HepDES19 CC50; 72 h, MTS; highest concentration tested 100 µM; mean ± SD
[4] = molecular target: T1, human ribonuclease H1 (huRNase H1) (Homo sapiens, UniProt O60930); assay: Human RNase H1 inhibition, fluorescent biochemical assay; conditions: recombinant huRNase H1, RNA:DNA heteroduplex substrate
T1 construct: made in house; host or cells: Escherichia coli
T1 sequence (O60930 1-286): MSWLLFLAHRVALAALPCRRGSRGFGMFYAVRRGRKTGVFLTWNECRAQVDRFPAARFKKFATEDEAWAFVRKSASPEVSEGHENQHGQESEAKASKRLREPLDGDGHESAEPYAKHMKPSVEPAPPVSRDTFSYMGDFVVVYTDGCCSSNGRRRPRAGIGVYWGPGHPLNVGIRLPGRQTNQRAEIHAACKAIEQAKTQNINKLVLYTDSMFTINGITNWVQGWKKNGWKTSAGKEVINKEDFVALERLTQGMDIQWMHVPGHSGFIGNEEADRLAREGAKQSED
Method: Recombinant human ribonuclease H1 (huRNase H1) was expressed in Escherichia coli and purified by nickel affinity chromatography, as described previously ([30]). […] The heteroduplex substrate was prepared, as described by Ponzar et al. ([30]). Reactions were initiated by the addition of MgCl2 (5 mM final) and were performed on a Biotek Synergy HTX multi-mode plate reader at 28°C.
Maximum rates of fluorescence increase were calculated using the Biotek Gen5 v3.15 software and percentage activity was determined for each compound concentration by subtracting rates from no enzyme reactions and normalizing to DMSO reactions. […] Reactions were performed at least three times on separate days.

Microsome stability = assay type: in vitro ADME, human
Method: Human liver microsomes (gender pooled, 50 individuals) were purchased from BioIVT and stored at −80°C until use. […] Reactions were initiated by addition of 1.2 mM NADPH. […] Microsomal proteins were pelleted at 4,000 × g and the supernatant was analyzed via LCMS/MS. […] The ln percent remaining values were plotted against time, the negative slope was taken (k), and compound half-life (t1/2) was determined using ln2/k. Intrinsic clearance (Clint [µL/min/mg]) was calculated by (V × ln2)/t1/2, where V is the incubation volume (µL) divided by the protein concentration in the reaction (mg) ([31]).

[5] = pH 5 (fed simulated intestinal fluid)
[6] = pH 6.5 (fasted simulated intestinal fluid)

Row | Structure (SMILES) | HepDES19 SI (CC50/EC50) [1] | EC50 [1] [µM] | Average Sol (solubility limit) [2, 5] [µM] | Sol 1 (solubility limit) ([2]; pH 5, replicate 1) [µM] | Sol 2 (solubility limit) ([2]; pH 5, replicate 2) [µM] | Average Sol (solubility limit) [2, 6] [µM] | Sol 1 (solubility limit) ([2]; pH 6.5, replicate 1) [µM] | Sol 2 (solubility limit) ([2]; pH 6.5, replicate 2) [µM] | Average Sol (solubility limit) ([2]; pH 7.4 (DMEM-F12 with 10% FBS)) [µM] | Sol 1 (solubility limit) ([2]; pH 7.4, replicate 1) [µM] | Sol 2 (solubility limit) ([2]; pH 7.4, replicate 2) [µM] | Avg Papp (PAMPA) ([3]; FeSSIF pH 5) [×10⁻⁶ cm/s] | Interpretation (PAMPA Papp) ([3]; FeSSIF pH 5) | Papp 1 (PAMPA) ([3]; FeSSIF pH 5, replicate 1) [×10⁻⁶ cm/s] | Papp 2 (PAMPA) ([3]; FeSSIF pH 5, replicate 2) [×10⁻⁶ cm/s] | Avg Papp (PAMPA) ([3]; pH 7.4) [×10⁻⁶ cm/s] | Interpretation (PAMPA Papp) ([3]; pH 7.4) | Papp 1 (PAMPA) ([3]; pH 7.4, replicate 1) [×10⁻⁶ cm/s] | Papp 2 (PAMPA) ([3]; pH 7.4, replicate 2) [×10⁻⁶ cm/s] | CC50 (HepDES19 cells) [µM] | further results
1 | COc1ccc(CON=C(C)c2c(C)cc(=O)n(O)c2O)cc1OC [Compound 1669] | 80.6 | 1.13 ± 0.955 | > 200 | > 200 | > 200 | > 200 | > 200 | > 200 | > 200 | > 200 | > 200 | 56.7 | H (H: Papp > 1*10-6) | 57.9 | 55.5 | 2.12 | H (H: Papp > 1*10-6) | 2.03 | 2.2 | 91 ± 15.6 | –
2 | CC(=NOCc1ccccc1C)c1c(C)cc(=O)n(O)c1O [Compound 1681] | 25.2 | 3.97 ± 1.19 | > 200 | > 200 | > 200 | > 200 | > 200 | > 200 | 106 | 25 | 100 | 30 | H (H: Papp > 1*10-6) | 28.5 | 31.5 | 4.73 | H (H: Papp > 1*10-6) | 3.11 | 9.39 | > 100 | Sol 3 (solubility limit) ([2]; pH 7.4, replicate 3): > 200 µM; Sol 4 (solubility limit) ([2]; pH 7.4, replicate 4): 100 µM; Papp 3 (PAMPA) ([3]; pH 7.4, replicate 3): 4.69 ×10⁻⁶ cm/s; Papp 4 (PAMPA) ([3]; pH 7.4, replicate 4): 1.74 ×10⁻⁶ cm/s
3 | CC(=NOCc1ccc(OCc2ccccc2)cc1)c1c(C)cc(=O)n(O)c1O [Compound 1738] | 6.53 | 7.49 ± 1.73 | > 200 | > 200 | > 200 | > 200 | > 200 | > 200 | 167 | > 200 | 100 | 25.9 | H (H: Papp > 1*10-6) | 19.9 | 42.6 | 5.42 | H (H: Papp > 1*10-6) | 1.34 | 9.64 | 51.4 ± 19.2 | Sol 3 (solubility limit) ([2]; pH 7.4, replicate 3): > 200 µM; Papp 3 (PAMPA) ([3]; FeSSIF pH 5, replicate 3): 3.74 ×10⁻⁶ cm/s; Papp 4 (PAMPA) ([3]; FeSSIF pH 5, replicate 4): 37.3 ×10⁻⁶ cm/s; Papp 3 (PAMPA) ([3]; pH 7.4, replicate 3): 9.47 ×10⁻⁶ cm/s; Papp 4 (PAMPA) ([3]; pH 7.4, replicate 4): 1.23 ×10⁻⁶ cm/s; IC50 [4]: 0.56 µM
4 | CC(=NOCc1ccc(Br)cc1)c1c(C)cc(=O)n(O)c1O [Compound 1717] | 52.7 | 1.13 ± 0.186 | 100 | 100 | 100 | 50 | 50 | 50 | 138 | 50 | > 200 | – | – | – | – | 1.61 | H (H: Papp > 1*10-6) | 1.61 | 1.61 | 76.7 ± 30.3 | Solubility limit category [2, 6]: partially soluble (partially soluble (100–1 µM)); Sol 3 (solubility limit) ([2]; pH 6.5, replicate 3): 50 µM; Sol 3 (solubility limit) ([2]; pH 7.4, replicate 3): > 200 µM; Sol 4 (solubility limit) ([2]; pH 7.4, replicate 4): 100 µM
5 | CC(C)c1nc(CN(C)C(=O)N[C@H](C(=O)N[C@@H](Cc2ccccc2)C[C@H](O)[C@H](Cc2ccccc2)NC(=O)OCc2cncs2)C(C)C)cs1 [Ritonavir, ritonavir, reference compound] | – | – | – | – | – | – | – | – | – | – | – | – | – | – | – | – | – | – | – | – | half-life at 1 µM (Microsome stability; both sexes, human liver microsomes, 1 µM compound, 30 min, NADPH): 23.3 min; microsomal CLint at 1 µM (Microsome stability; both sexes, human liver microsomes, 1 µM compound, 30 min, NADPH, read-out: Clearance (intrinsic clearance, Clint)): 45.2 µL/min/mg
6 | CC(=NOCc1ccc(C(F)(F)F)cc1)c1c(C)cc(=O)n(O)c1O [Compound 1235] | 26.3 | 1.87 ± 0.351 | > 200 | > 200 | > 200 | 167 | 100 | > 200 | > 200 | > 200 | > 200 | 18 | H (H: Papp > 1*10-6) | 22.7 | 13.2 | 3.34 | H (H: Papp > 1*10-6) | 2.29 | 4.4 | 49.2 ± 19.2 | Clearance (intrinsic clearance, Clint) (Microsome stability; human, microsomes): 5.48 µL/min/mg; Half-life (Microsome stability; human, microsomes): >30 min; Sol 3 (solubility limit) ([2]; pH 6.5, replicate 3): > 200 µM
7 | CC(=NOCc1ccccc1Br)c1c(C)cc(=O)n(O)c1O [Compound 1718] | 34.1 | 2 ± 1.63 | > 200 | > 200 | > 200 | 138 | 50 | 100 | 150 | 50 | > 200 | 43.6 | H (H: Papp > 1*10-6) | 37.3 | 50 | 3.22 | H (H: Papp > 1*10-6) | 3.31 | 3.07 | 80.8 ± 27.5 | Sol 3 (solubility limit) ([2]; pH 6.5, replicate 3): > 200 µM; Sol 4 (solubility limit) ([2]; pH 6.5, replicate 4): > 200 µM; Sol 3 (solubility limit) ([2]; pH 7.4, replicate 3): > 200 µM; Papp 3 (PAMPA) ([3]; pH 7.4, replicate 3): 3.29 ×10⁻⁶ cm/s
8 | CC(=NOCc1ccc2ccccc2c1)c1c(C)cc(=O)n(O)c1O [Compound 1811] | 71.3 | 1.4 ± 1.19 | 50 | 50 | 50 | > 200 | > 200 | > 200 | 167 | 100 | > 200 | – | – | – | – | 3.57 | H (H: Papp > 1*10-6) | 1.71 | 3.97 | 64.3 ± 25.2 | Solubility limit category ([2]; pH 5.0 (fed simulated intestinal fluid)): partially soluble (partially soluble (100–1 µM)); Sol 3 (solubility limit) ([2]; pH 7.4, replicate 3): > 200 µM; Papp 3 (PAMPA) ([3]; pH 7.4, replicate 3): 4.02 ×10⁻⁶ cm/s; Papp 4 (PAMPA) ([3]; pH 7.4, replicate 4): 4.6 ×10⁻⁶ cm/s
